Laboratory results from article PMC12212627, “Machine Learning-Based Virtual Screening of Antibacterial Agents against Methicillin-Susceptible and Resistant Staphylococcus aureus” (Journal of Chemical Information and Modeling, 2024).

What was measured:
[1] = test system: S. aureus (ATCC n° 29213), MSSA; experiment: Broth microdilution (CLSI): screening at 100 μM and MIC, MSSA; format: cell-based, Staphylococcus aureus; conditions: for Percentage of growth inhibition MSSA (ATCC 29123): at 100 uM, Table S4
Description: (§1) E. coli (ATCC n° […]) – a TEM-1 β-lactamase producing strain, S. aureus (ATCC n° 29213) – herein referred to as MSSA, MRSA (ATCC n° 43300), and two clinical strains of MRSA (n° 5749 and 6154) were used in the biological assays. The antibacterial activity and minimal inhibitory concentration (MIC) of the screened compounds were evaluated with the broth microdilution method in 96-well microplates, according to the Clinical and Laboratory Standards Institute (CLSI) protocol. Initially, compounds were evaluated in a screening assay to identify promising hits. The compounds were dissolved in dimethyl sulfoxide (DMSO) and then diluted in Mueller Hinton broth (MHB; Oxoid, Thermo Scientific, U.K.) to a concentration of 200 μM. After the addition of 100 μL to each well, the same volume of bacterial suspension containing 10^5 CFU/mL was added to each of the previous solutions, resulting in a final compound concentration of 100 μM. A viability control (bacterial suspension only), inhibition controls (MHB containing five times the MIC of penicillin G for MSSA, vancomycin for MRSA strains, and streptomycin for E. coli), a sterility control (medium only), and a vehicle control (DMSO 2% v/v) were included in each assay microplate. After 24 h of incubation at 37 °C, the microplates were visually inspected for inhibition of bacterial growth, and the absorbance at 600 nm of each well was read using a microplate reader spectrophotometer (VersaMax, Molecular Devices, CA). The percentage of growth inhibition was calculated as the percentage of growth reduction compared with the vehicle control. Wells showing no visual bacterial growth (no turbidity) were considered hits. The MIC of the promising compounds in the initial screening were tested as previously described, with a serial dilution of each compound (100–1.56 μM). All conditions were tested in triplicate from at least three independent assays.

MRSA (ATCC n° 43300) = experiment: Broth microdilution (CLSI): screening at 100 μM and MIC, MRSA reference strain; format: cell-based, Staphylococcus aureus; conditions: for Percentage of growth inhibition MRSA (ATCC 43300): at 100 uM, Table S4
Description: as §1

[2] = test system: clinical strain of MRSA n° 5749; experiment: Broth microdilution (CLSI): screening at 100 μM and MIC, MRSA clinical strain 5749; format: cell-based, Staphylococcus aureus; conditions: for Percentage of growth inhibition MRSA (5749): at 100 uM, Table S4
Description: as §1

[3] = test system: clinical strain of MRSA n° 6154; experiment: Broth microdilution (CLSI): screening at 100 μM and MIC, MRSA clinical strain 6154; format: cell-based, Staphylococcus aureus; conditions: for Percentage of growth inhibition MRSA (6154): at 100 uM, Table S4
Description: as §1

[4] = test system: E. coli (ATCC 35218), TEM-1 β-lactamase producing strain; experiment: Broth microdilution (CLSI): screening at 100 μM and MIC, E. coli; format: cell-based; conditions: for Percentage of growth inhibition E. coli (ATCC 35218): at 100 uM, Table S4
Description: as §1

[5] = Cytotoxicity, colorimetric MTT assay; format: cell-based; conditions: African green monkey, Vero (ATCC CCL-81) cells, 72 h incubation
Description: As for the cytotoxic concentration of 50% (CC50) determination, the Vero (ATCC CCL-81) cell line was cultured in Eagle’s Minimum Essential Medium (MEM) (Cultilab, Brazil). The medium was supplemented with 5% fetal bovine serum (FBS) (Cultilab, Brazil), in addition to 100 IU/mL penicillin (Cellofarm, Brazil), 100 μg/mL streptomycin (Merck, Germany), and 0.25 μg/mL amphotericin B (Cultilab, Brazil). Cells were seeded in 96-well microplates (4.0 × 10^4 cells per well) and incubated at 37 °C and 5% CO2 atmosphere. After 24 h of incubation, 200 μL of fresh medium containing a serial dilution of the compounds (100–1.56 μM) was added to the plates. Serial dilutions of DMSO were used as vehicle controls. After 72 h of incubation under the same conditions, 100 μL of 3-(4,5-dimethylthiazol-2-yl)–2,5-diphenyltetrazolium bromide (MTT) in MEM (0.5 mg/mL) was added to each well. After 3 h of incubation with MTT (ThermoFischer Scientific), the medium was removed, and 100 μL of DMSO was added to each well to solubilize the formazan crystals. After a brief incubation under shaking for 20 min, the absorbance at 570 nm of each well was read using a spectrophotometer (VersaMax, Molecular Devices). The percentages of inhibition of cell viability were calculated by using the vehicle control. The cytotoxic concentration of 50% (CC50) is defined as the lowest concentration of a given compound that can reduce the viability of cultured cells by 50%. Posteriorly, the selectivity index (SI), that is, the ratio between the CC50 and MIC values of each active compound, was calculated. All conditions were tested in triplicate and at least two independent assays. The overall procedures applied in this work are illustrated in Figure .

MSSA and MRSA strains = experiment: Broth microdilution, results summed up over MSSA and MRSA strains; format: cell-based, Staphylococcus aureus; conditions: tested compounds of Supporting Table S4, 100 μM
Description: as §1

[6] = broth microdilution, 24 h, 37 °C

Row | SMILES | Percentage of growth inhibition MSSA (ATCC 29123) [1] | Percentage of growth inhibition MRSA (ATCC 43300) (MRSA (ATCC n° 43300)) | Percentage of growth inhibition MRSA (5749) [2] | Percentage of growth inhibition MRSA (6154) [3] | Percentage of growth inhibition E. coli (ATCC 35218) [4] | also measured
1 | Cc1ccc(OCC(N)COc2ccc(C)cc2)cc1 [Compound 4, 1,3-bis(4-methylphenoxy)propano-2-aminium chloride] |  |  |  |  |  | MIC ([1]; Staphylococcus aureus, ATCC 29123 / MSSA, broth microdilution, 24 h, 37 °C): 50 µM; % of growth inhibition, MSSA (ATCC 29123) ([1]; at the concentration (MIC)): 97.80%; MIC (MRSA (ATCC n° 43300); Staphylococcus aureus, ATCC 43300 / MRSA, broth microdilution, 24 h, 37 °C): 100 µM; % of growth inhibition, MRSA (ATCC 43300) (MRSA (ATCC n° 43300); at the concentration given (MIC or 100 μM where MIC >100)): 90.38%; MIC, MRSA (5749) [2, 6]: −; MIC, MRSA (6154) [3, 6]: −; inhibition at 100 µM ([4]; Escherichia coli, ATCC35218, at 100 μM, read-out: inhibition in the initial screening, E. coli): 85.5%; MIC ([4]; Escherichia coli, ATCC35218, broth microdilution, 24 h, 37 °C): 100 µM; % of growth inhibition, E. coli (ATCC 35218) ([4]; at the concentration (MIC)): 87.0%; CC50 at 72 h [5]: 19 ± 6.1 µM
2 | O=C1C=C(OCc2cn(-c3ccccc3)nn2)C(=O)c2ccccc21 [S12] | 0% | 0% | 0% | 0% | 0% | antibacterial activity (in words) (MSSA and MRSA strains): no antibacterial activity
3 | CC1(C)OCC(CO)N1C(=O)OCc1ccccc1 (stereo not drawn) [S13] | 0% | 0% | 0% | 0% | 0% | 
4 | O=C(C=Cc1ccccc1)NC(CO)COc1ccc([N+](=O)[O-])cc1 (stereo not drawn) [S14] | 0% | 0% | 0% | 0% | 0% | 
5 | O=C(CCc1ccccc1)ON1C(=O)CCC1=O [S16] | 0% | 0% | 0% | 0% | 0% | 
6 | OC(COc1cccc2ccccc12)COc1cccc2ccccc12 [S17] | 0% | 0% | 0% | 0% | 0% | 
7 | N#Cc1ccccc1OCC(O)COc1ccccc1C#N [S18] | 0% | 0% | 0% | 0% | 0% | 
8 | N#Cc1cccc(OCC(O)COc2cccc(C#N)c2)c1 [S19] | 0% | 0% | 0% | 0% | 0% | 
9 | O=C1C(O)=C(Cc2cn(C3OC(CO)C(O)C(O)C3O)nn2)C(=O)c2ccccc21 (stereo not drawn) [S25] | 0% | 0% | 0% | 0% | 0% | 
10 | O=C1C(O)=C(Cc2cn(C3OC(CO)C(O)C(O)C3O)nn2)C(=O)c2ccccc21 (stereo not drawn) [S26] | 0% | 0% | 0% | 0% | 0% | 
11 | CC(=O)NC1C(O)C(O)C(CO)OC1n1cc(CC2=C(O)C(=O)c3ccccc3C2=O)nn1 (stereo not drawn) [S27] | 0% | 0% | 0% | 0% | 0% | 
12 | CC(=O)OC1C(C)OC(n2cc(COC3=CC(=O)c4ccccc4C3=O)nn2)C(OC(C)=O)C1OC(C)=O (stereo not drawn) [S33] | 0% | 0% | 0% | 0% | 0% | antibacterial activity (in words) (MSSA and MRSA strains): inactive
13 | CC(C)=CCC1=C(NCC(=O)O)C(=O)c2ccccc2C1=O [S34] | 0% | 0% | 0% | 0% | 0% | 
14 | C#CCOC1=C(CC=C(C)C)C(=O)c2ccccc2C1=O [S35] | 0% | 0% | 0% | 0% | 0% | 
15 | O=C(NC(Cc1ccc(O)cc1)C(=O)O)OCc1ccccc1 (stereo not drawn) [S42] | 0% | 0% | 0% | 0% | 0% | 
16 | NC(=O)CC(NC(=O)OCc1ccccc1)C(=O)O (stereo not drawn) [S43] | 0% | 0% | 0% | 0% | 0% | 
17 | NCCNC(=O)c1cc2ccccc2[nH]1 [S45] | 0% | 0% | 0% | 0% | 0% | 
18 | OCCNCc1cc2ccccc2[nH]1 [S46] | 0% | 0% | 0% | 0% | 0% | 
19 | CCCNC(=O)c1cc2ccccc2[nH]1 [S47] | 0% | 0% | 0% | 0% | 0% | 
20 | O=C(NCCO)c1cc2ccccc2[nH]1 [S48] | 0% | 0% | 0% | 0% | 0% | 
21 | O=C(NCCCN1CCOCC1)c1cc2ccccc2[nH]1 [S49] | 0% | 0% | 0% | 0% | 0% | 
22 | O=c1cc(-c2ccc(O)c(O)c2)oc2c(C3OC(CO)C(O)C(O)C3O)c(O)cc(O)c12 (stereo not drawn) [S54] | 0% | 0% | 0% | 0% | 0% | 
